From PubChem BioAssay (NCI)
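96-well plates; 48 h exposure; 5 concentrations. Endpoints by linear interpolation between flanking doses. Not reached: highest tested concentration assigned. GI50 is the concentration that inhibits growth by half. Definition used: TGI = concentration required for complete inhibition of growth.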

Columns and labels:
Test in all cases: DTP human tumour cell line panel, 48 h
786-0 renal = system: 786-0 renal
A498 renal = system: A498 renal
A549 NSCLC = system: A549 NSCLC
ACHN renal = system: ACHN renal
BT-549 breast = system: BT-549 breast
CAKI-1 renal = system: CAKI-1 renal
CCRF-CEM leukemia = system: CCRF-CEM leukemia
COLO 205 colon = system: COLO 205 colon
DU-145 prostate = system: DU-145 prostate
EKVX NSCLC = system: EKVX NSCLC
HCT-116 colon = system: HCT-116 colon
HCT-15 colon = system: HCT-15 colon
HL-60(TB) leukemia = system: HL-60(TB) leukemia
HOP-62 NSCLC = system: HOP-62 NSCLC
HOP-92 NSCLC = system: HOP-92 NSCLC
HS 578T breast = system: HS 578T breast
HT29 colon = system: HT29 colon
IGROV1 ovarian = system: IGROV1 ovarian
K-562 leukemia = system: K-562 leukemia
KM12 colon = system: KM12 colon
LOX IMVI melanoma = system: LOX IMVI melanoma
M14 melanoma = system: M14 melanoma
MALME-3M melanoma = system: MALME-3M melanoma
MCF7 breast = system: MCF7 breast
MDA-MB-231 breast = system: MDA-MB-231 breast
MDA-MB-435 = system: MDA-MB-435
NCI-H226 lung = system: NCI-H226 lung
NCI-H23 lung = system: NCI-H23 lung
NCI-H460 lung = system: NCI-H460 lung
NCI-H522 lung = system: NCI-H522 lung
NCI/ADR-RES ovarian = system: NCI/ADR-RES ovarian
OVCAR-3 ovarian = system: OVCAR-3 ovarian
OVCAR-5 ovarian = system: OVCAR-5 ovarian
OVCAR-8 ovarian = system: OVCAR-8 ovarian
PC-3 prostate = system: PC-3 prostate
RPMI-8226 leukemia = system: RPMI-8226 leukemia
SF-268 CNS = system: SF-268 CNS
SF-295 CNS = system: SF-295 CNS
SF-539 CNS = system: SF-539 CNS
SK-MEL-2 melanoma = system: SK-MEL-2 melanoma
SK-MEL-5 melanoma = system: SK-MEL-5 melanoma
SK-OV-3 ovarian = system: SK-OV-3 ovarian
SN12C renal = system: SN12C renal
SNB-19 CNS = system: SNB-19 CNS
SR leukemia = system: SR leukemia
SW-620 colon = system: SW-620 colon
T-47D breast = system: T-47D breast
TK-10 renal = system: TK-10 renal
U251 CNS = system: U251 CNS
UACC-257 melanoma = system: UACC-257 melanoma
UACC-62 melanoma = system: UACC-62 melanoma
UO-31 renal = system: UO-31 renal
HCC-2998 colon = system: HCC-2998 colon
MOLT-4 leukemia = system: MOLT-4 leukemia
OVCAR-4 ovarian = system: OVCAR-4 ovarian
RXF 393 renal = system: RXF 393 renal
SK-MEL-28 melanoma = system: SK-MEL-28 melanoma
SNB-75 CNS = system: SNB-75 CNS

`CO[C@]12C[C@H](CNC(=O)c3ccc[nH]3)O[C@H]1NC(=O)N2` was tested, and the TGI (786-0 renal) was over 100 µM, the TGI (A498 renal) was over 100 µM and the TGI (A549 NSCLC) was over 100 µM. It also gave a TGI (ACHN renal) of over 100 µM, a TGI (BT-549 breast) of over 100 µM and a TGI (CAKI-1 renal) of over 100 µM. For the same molecule, the TGI (CCRF-CEM leukemia) was over 100 µM, the TGI (COLO 205 colon) was over 100 µM and the TGI (DU-145 prostate) was over 100 µM. It also gave a TGI (EKVX NSCLC) of over 100 µM, a TGI (HCT-116 colon) of over 100 µM and a TGI (HCT-15 colon) of over 100 µM. The TGI (HL-60(TB) leukemia) was over 100 µM, the TGI (HOP-62 NSCLC) was over 100 µM and the TGI (HOP-92 NSCLC) was over 100 µM. The TGI (HS 578T breast) was over 100 µM, the TGI (HT29 colon) was over 100 µM and the TGI (IGROV1 ovarian) was over 100 µM. It also gave a TGI (K-562 leukemia) of over 100 µM, a TGI (KM12 colon) of over 100 µM and a TGI (LOX IMVI melanoma) of over 100 µM. The TGI (M14 melanoma) was over 100 µM, the TGI (MALME-3M melanoma) was over 100 µM and the TGI (MCF7 breast) was over 100 µM. The TGI (MDA-MB-231 breast) was over 100 µM, the TGI (MDA-MB-435) was over 100 µM and the TGI (NCI-H226 lung) was over 100 µM. The TGI (NCI-H23 lung) was over 100 µM, the TGI (NCI-H460 lung) was over 100 µM and the TGI (NCI-H522 lung) was over 100 µM. The TGI (NCI/ADR-RES ovarian) was over 100 µM, the TGI (OVCAR-3 ovarian) was over 100 µM and the TGI (OVCAR-5 ovarian) was over 100 µM. The TGI (OVCAR-8 ovarian) was over 100 µM, the TGI (PC-3 prostate) was over 100 µM and the TGI (RPMI-8226 leukemia) was over 100 µM. It also gave a TGI (SF-268 CNS) of over 100 µM, a TGI (SF-295 CNS) of over 100 µM and a TGI (SF-539 CNS) of over 100 µM. The TGI (SK-MEL-2 melanoma) was over 100 µM, the TGI (SK-MEL-5 melanoma) was over 100 µM and the TGI (SK-OV-3 ovarian) was over 100 µM. For the same molecule, the TGI (SN12C renal) was over 100 µM, the TGI (SNB-19 CNS) was over 100 µM and the TGI (SR leukemia) was over 100 µM. For the same molecule, the TGI (SW-620 colon) was over 100 µM, the TGI (T-47D breast) was over 100 µM and the TGI (TK-10 renal) was over 100 µM. The TGI (U251 CNS) was over 100 µM, the TGI (UACC-257 melanoma) was over 100 µM and the TGI (UACC-62 melanoma) was over 100 µM. It also gave a TGI (UO-31 renal) of over 100 µM.
For `O=S(=O)(NCCCNc1nccc(-c2c(-c3ccc(F)cc3)nc3sccn23)n1)c1ccc2ccccc2c1`, the GI50 (786-0 renal) was 6.19 µM, the TGI (786-0 renal) was over 100 µM and the GI50 (A498 renal) was 3.01 µM. It also gave a TGI (A498 renal) of over 100 µM, a GI50 (A549 NSCLC) of 4.43 µM and a TGI (A549 NSCLC) of over 100 µM. For the same molecule, the GI50 (ACHN renal) was 3.42 µM, the TGI (ACHN renal) was over 100 µM and the GI50 (BT-549 breast) was 4.34 µM. The TGI (BT-549 breast) was over 100 µM, the GI50 (CAKI-1 renal) was 5.47 µM and the TGI (CAKI-1 renal) was over 100 µM. The GI50 (CCRF-CEM leukemia) was 3.13 µM, the TGI (CCRF-CEM leukemia) was over 100 µM and the GI50 (COLO 205 colon) was 2.22 µM. For the same molecule, the TGI (COLO 205 colon) was 4.81 µM, the GI50 (DU-145 prostate) was 5.53 µM and the TGI (DU-145 prostate) was over 100 µM. For the same molecule, the GI50 (HCC-2998 colon) was 3.37 µM, the TGI (HCC-2998 colon) was 9.61 µM and the GI50 (HCT-116 colon) was 4.41 µM. It also gave a TGI (HCT-116 colon) of over 100 µM, a GI50 (HCT-15 colon) of 3.26 µM and a TGI (HCT-15 colon) of over 100 µM. For the same molecule, the GI50 (HL-60(TB) leukemia) was 4.25 µM, the TGI (HL-60(TB) leukemia) was over 100 µM and the GI50 (HOP-62 NSCLC) was over 100 µM. The TGI (HOP-62 NSCLC) was over 100 µM, the GI50 (HOP-92 NSCLC) was 6.36 µM and the TGI (HOP-92 NSCLC) was over 100 µM. It also gave a GI50 (HS 578T breast) of 9.13 µM, a TGI (HS 578T breast) of over 100 µM and a GI50 (HT29 colon) of 2.4 µM. For the same molecule, the TGI (HT29 colon) was 7.58 µM, the GI50 (IGROV1 ovarian) was 5.37 µM and the TGI (IGROV1 ovarian) was over 100 µM. It also gave a GI50 (KM12 colon) of 2.86 µM, a TGI (KM12 colon) of 9.96 µM and a GI50 (LOX IMVI melanoma) of 4.35 µM. It also gave a TGI (LOX IMVI melanoma) of over 100 µM, a GI50 (M14 melanoma) of 6.53 µM and a TGI (M14 melanoma) of over 100 µM. The GI50 (MCF7 breast) was 3.71 µM, the TGI (MCF7 breast) was over 100 µM and the GI50 (MDA-MB-231 breast) was 3.8 µM. It also gave a TGI (MDA-MB-231 breast) of over 100 µM, a GI50 (MDA-MB-435) of 3.67 µM and a TGI (MDA-MB-435) of over 100 µM. For the same molecule, the GI50 (MOLT-4 leukemia) was 4.52 µM, the TGI (MOLT-4 leukemia) was over 100 µM and the GI50 (NCI-H226 lung) was 5.77 µM. It also gave a TGI (NCI-H226 lung) of over 100 µM, a GI50 (NCI-H23 lung) of 15.1 µM and a TGI (NCI-H23 lung) of over 100 µM. The GI50 (NCI-H460 lung) was 3.74 µM, the TGI (NCI-H460 lung) was over 100 µM and the GI50 (NCI-H522 lung) was 5.66 µM. It also gave a TGI (NCI-H522 lung) of over 100 µM, a GI50 (NCI/ADR-RES ovarian) of 3.89 µM and a TGI (NCI/ADR-RES ovarian) of over 100 µM. For the same molecule, the GI50 (OVCAR-4 ovarian) was 5.99 µM, the TGI (OVCAR-4 ovarian) was over 100 µM and the GI50 (OVCAR-5 ovarian) was over 100 µM. It also gave a TGI (OVCAR-5 ovarian) of over 100 µM, a GI50 (OVCAR-8 ovarian) of 4.63 µM and a TGI (OVCAR-8 ovarian) of over 100 µM. The GI50 (PC-3 prostate) was 4.36 µM, the TGI (PC-3 prostate) was over 100 µM and the GI50 (RPMI-8226 leukemia) was 4.05 µM. The TGI (RPMI-8226 leukemia) was over 100 µM, the GI50 (RXF 393 renal) was 5.21 µM and the TGI (RXF 393 renal) was over 100 µM. The GI50 (SF-268 CNS) was 6.46 µM, the TGI (SF-268 CNS) was over 100 µM and the GI50 (SF-295 CNS) was 6.86 µM. For the same molecule, the TGI (SF-295 CNS) was over 100 µM, the GI50 (SF-539 CNS) was over 100 µM and the TGI (SF-539 CNS) was over 100 µM. For the same molecule, the GI50 (SK-MEL-2 melanoma) was 6.63 µM, the TGI (SK-MEL-2 melanoma) was over 100 µM and the GI50 (SK-MEL-28 melanoma) was over 100 µM. It also gave a TGI (SK-MEL-28 melanoma) of over 100 µM, a GI50 (SK-MEL-5 melanoma) of 4.17 µM and a TGI (SK-MEL-5 melanoma) of over 100 µM. The GI50 (SK-OV-3 ovarian) was over 100 µM, the TGI (SK-OV-3 ovarian) was over 100 µM and the GI50 (SN12C renal) was 4.69 µM. For the same molecule, the TGI (SN12C renal) was over 100 µM, the GI50 (SNB-19 CNS) was 8.53 µM and the TGI (SNB-19 CNS) was over 100 µM. For the same molecule, the GI50 (SNB-75 CNS) was 5.22 µM, the TGI (SNB-75 CNS) was over 100 µM and the GI50 (SR leukemia) was 4.01 µM. The TGI (SR leukemia) was over 100 µM, the GI50 (SW-620 colon) was 6.4 µM and the TGI (SW-620 colon) was over 100 µM. For the same molecule, the GI50 (T-47D breast) was 2.85 µM, the TGI (T-47D breast) was over 100 µM and the GI50 (TK-10 renal) was 7.54 µM. The TGI (TK-10 renal) was over 100 µM, the GI50 (U251 CNS) was 4.87 µM and the TGI (U251 CNS) was over 100 µM. The GI50 (UACC-257 melanoma) was over 100 µM, the TGI (UACC-257 melanoma) was over 100 µM and the GI50 (UACC-62 melanoma) was 4.6 µM. The TGI (UACC-62 melanoma) was over 100 µM, the GI50 (UO-31 renal) was 3.58 µM and the TGI (UO-31 renal) was over 100 µM.
